{"source": "patent US8507756B2", "about": "“Plant protection” (Plant Bioscience Limited, priority 2007, dated 2013)", "assay_type_in_all_cases": "in vivo", "key": {"[1]": {"tested_on": "Tetranychus urticae (two-spotted spider mite)", "experiment": "Spider mite challenge of untreated tomato plants grown adjacent to plants from JA-treated seeds", "settings": "tomato cv Carousel; neighbours of 1.5 or 3.0 mM JA seed treatment", "description": "The effect of Tetranychus urticae on plants was measured by means of counting the number of live and dead mites on each plant and the number of mite eggs present using a dissecting microscope. Seeds of a UK commercial F1 hybrid tomato variety (cv. Carousel) were treated with either 1.5 or 3.0 mM jasmonic acid (JA) and 42.8 mM ethanol in deionised H2O for a period of 24 hours at 4° C. in the dark. Those seeds were then removed from solution and washed in deionised H2O only to remove the JA coating the outside of the seed. Those seed were then germinated in a commercial manner using rockwool blocks and were grown on under glasshouse conditions appropriate to this crop. Plants were challenged with two-spotted spider mite (Tetranychus urticae) 7 weeks after treatment a common crop pest, acting here as a “model herbivore”. […] The effect was observed on comparing the controls located at least 10 meters away. (FIG. 6). The illustrated data are means of 10 replicates+/−standard error of the mean. […] The effect was again observed on comparing the controls located at least 10 meters away. (FIG. 7). The illustrated data are means of 10 replicates+/−standard error of the mean."}, "[2]": {"tested_on": "Myzus persicae", "experiment": "JA or MeJA seed treatment, tomato plants challenged with aphids", "settings": "tomato cv. Carousel, seed treatment 3.0 mM JA, challenged 10 weeks after sowing", "description": "Tomato, pepper, maize and wheat seeds were treated with 3 mM JA or 1.5 mM JA solutions or with 3 mM methyl jasmonate (MeJA) or with deionised water containing 42.8 mM ethanol (control) by full submersion of up to 40 seeds in a Petri dish of solution wrapped in foil for a period of 24 hours at 4° C. in a fridge. A temperature of 4° C. was used both to prevent degradation of the jasmonic acid solutions and to prevent germination of the seeds. The seeds were then removed from the treatment solution and washed in 1 liter of deionised water for 5 minutes to remove the JA or MeJA coating the outside of the seeds. Tomato seeds were sown in rockwool blocks and grown on peat-based compost in glass houses at 12° C.-28° C. under artificial light on a 16 hour light and 8 hour dark cycle for 48, 56 or 70 days. Tomato plants were then challenged with Tetranychus urticae (two-spotted spider mite) which were allowed to feed for 9 days, Manduca sexta (tobacco hornworm) caterpillars which were allowed to feed for 4 days or Myzus persicae (aphid), which were allowed to feed for 10 or 12 days. In each case these organisms were restricted to the plant on which they had originally been placed. Pepper plants were challenged with Myzus persicae (aphid), which were allowed to feed for 2 weeks. Maize and wheat plants were challenged with Spodoptera […] caterpillars which were allowed to feed for 2 days (maize) or 3 days (wheat). The effect of Myzus persicae on plants was determined by counting the aphid population on each plant under a dissecting microscope at ×10 magnification. Seeds of a UK commercial F1 hybrid tomato variety (cv. Carousel) were treated with 3.0 mM jasmonic acid (JA) and 42.8 mM ethanol in deionised H2O for a period of 24 hours at 4° C. in the dark. […] Aphids were allowed to feed on the plants for twelve days and the aphid population was measured at intervals over this period. […]"}, "[3]": {"tested_on": "Spodoptera exempta", "experiment": "JA seed treatment, wheat plants challenged with Spodoptera exempta caterpillars", "settings": "wheat cv. Einstein; seed treatment 1.5 mM JA; challenged 7 weeks after seed treatment; 3 days feeding; p<0.01", "description": "Tomato, pepper, maize and wheat seeds were treated with 3 mM JA or 1.5 mM JA solutions or with 3 mM methyl jasmonate (MeJA) or with deionised water containing 42.8 mM ethanol (control) by full submersion of up to 40 seeds in a Petri dish of solution wrapped in foil for a period of 24 hours at 4° C. in a fridge. A temperature of 4° C. was used both to prevent degradation of the jasmonic acid solutions and to prevent germination of the seeds.\nWheat and maize seeds were sown in peat-based compost and grown in unheated glass houses with supplementary lighting. (600 W SON-T lamps, for 16 hours per day) in the autumn.\nTomato plants were then challenged with Tetranychus urticae (two-spotted spider mite) which were allowed to feed for 9 days, Manduca sexta (tobacco hornworm) caterpillars which were allowed to feed for 4 days or Myzus persicae (aphid), which were allowed to feed for 10 or 12 days. […]\nThe effect of Manduca sexta or Spodoptera exempta on plants was determined by measurement of the leaf area eaten, measured using a leaf area meter.\nSeeds of the commercial wheat variety (cv. Einstein) were treated with 1.5 mM jasmonic acid (JA), and plants grown in the glasshouse (as described under Example 1). […] Caterpillars were allowed to feed on the plants for 3 days and the area of grazed leaves was then measured. […]"}}, "data": [{"smiles": "CC/C=C\\C[C@H]1C(=O)CC[C@@H]1CC(=O)O", "note": "[JA, jasmonic acid]", "values": [{"measurement": "Population of T. urticae on untreated plants grown adjacent to plants from JA-treated seeds, vs controls at least 10 meters away", "setting": "[1]", "value": "significant reduction"}, {"measurement": "Reproductive rate of the mite (egg production) on untreated plants grown adjacent to plants from JA-treated seeds, vs controls at least 10 meters away", "setting": "[1]", "value": "significant reduction"}, {"measurement": "Aphid population compared with control plants", "setting": "[2]; 12 days feeding", "value": "significant (p<0.05) reduction"}, {"measurement": "Aphid population compared with control plants, treated seed stored before sowing", "setting": "[2]; seed dried and stored at 4 C for two months before sowing, 10 days feeding", "value": "significant (p<0.05) reduction"}, {"measurement": "Leaf area consumed by caterpillars, lower than controls", "setting": "[3]", "value": 60, "unit": "%"}]}]}
